Data published in ChEMBL document CHEMBL3994622, “Design and synthesis of new RAF kinase-inhibiting antiproliferative quinoline derivatives. Part 2: Diarylurea derivatives” (Eur J Med Chem, 2017).

Key:
Type in all cases: functional
[1] = test system: HT-29; test: Growth inhibition of human HT-29 cells assessed as cell growth at 0.03 uM incubated for 48 hrs by sulforhodamine B assay relative to control; details: HT-29, 48 h, read-out: Activity
[2] = test system: T47D; test: Growth inhibition of human T47D cells assessed as cell growth at 3 uM incubated for 48 hrs by sulforhodamine B assay relative to control; details: read-out: Activity
[3] = test system: M14; test: Growth inhibition of human M14 cells assessed as cell growth at 30 uM incubated for 48 hrs by sulforhodamine B assay relative to control; details: M14, 48 h, read-out: Activity
[4] = test system: OVCAR-5; test: Growth inhibition of human OVCAR5 cells assessed as cell growth at 0.3 uM incubated for 48 hrs by sulforhodamine B assay relative to control; details: OVCAR-5, 48 h, read-out: Activity
[5] = test system: SF-539; test: Growth inhibition of human SF539 cells assessed as cell growth at 3 uM incubated for 48 hrs by sulforhodamine B assay relative to control; details: SF-539, 48 h, read-out: Activity
[6] = test system: SNB-19; test: Growth inhibition of human SNB19 cells assessed as cell growth at 0.003 uM incubated for 48 hrs by sulforhodamine B assay relative to control; details: SNB-19, 48 h, read-out: Activity
[7] = test system: UACC-257; test: Growth inhibition of human UACC257 cells assessed as cell growth at 0.03 uM incubated for 48 hrs by sulforhodamine B assay relative to control; details: UACC-257, 48 h, read-out: Activity
[8] = test system: MCF7; test: Growth inhibition of human MCF7 cells assessed as cell growth at 0.03 uM incubated for 48 hrs by sulforhodamine B assay relative to control; details: MCF7, 48 h, read-out: Activity
[9] = test system: SF-295; test: Growth inhibition of human SF295 cells assessed as cell growth at 0.03 uM incubated for 48 hrs by sulforhodamine B assay relative to control; details: SF-295, 48 h, read-out: Activity
[10] = test system: TK-10; test: Growth inhibition of human TK10 cells assessed as cell growth at 0.003 uM incubated for 48 hrs by sulforhodamine B assay relative to control; details: TK-10, 48 h, read-out: Activity
[11] = test system: 786-0; test: Growth inhibition of human 786-0 cells assessed as cell growth at 0.3 uM incubated for 48 hrs by sulforhodamine B assay relative to control; details: 786-0, 48 h, read-out: Activity
[12] = test system: MOLT-4; test: Growth inhibition of human MOLT4 cells assessed as cell growth at 0.003 uM incubated for 48 hrs by sulforhodamine B assay relative to control; details: MOLT-4, 48 h, read-out: Activity
[13] = test system: OVCAR-4; test: Growth inhibition of human OVCAR4 cells assessed as cell growth at 10 uM incubated for 48 hrs by sulforhodamine B assay relative to control; details: OVCAR-4, 48 h, read-out: Activity
[14] = test system: OVCAR-8; test: Growth inhibition of human OVCAR8 cells assessed as cell growth at 0.1 uM incubated for 48 hrs by sulforhodamine B assay relative to control; details: OVCAR-8, 48 h, read-out: Activity
[15] = test system: LOX IMVI; test: Growth inhibition of human LOXIMVI cells assessed as cell growth at 0.01 uM incubated for 48 hrs by sulforhodamine B assay relative to control; details: read-out: Activity
[16] = test system: MOLT-4; test: Growth inhibition of human MOLT4 cells assessed as cell growth at 10 uM incubated for 48 hrs by sulforhodamine B assay relative to control; details: MOLT-4, 48 h, read-out: Activity
[17] = test system: SK-OV-3; test: Growth inhibition of human SKOV3 cells assessed as cell growth at 100 uM incubated for 48 hrs by sulforhodamine B assay relative to control; details: SK-OV-3, 48 h, read-out: Activity
[18] = test system: NCI-H226; test: Growth inhibition of human NCI-H226 cells assessed as cell growth at 1 uM incubated for 48 hrs by sulforhodamine B assay relative to control; details: NCI-H226, 48 h, read-out: Activity
[19] = test system: SNB-19; test: Growth inhibition of human SNB19 cells assessed as cell growth at 100 uM incubated for 48 hrs by sulforhodamine B assay relative to control; details: SNB-19, 48 h, read-out: Activity
[20] = test system: UO-31; test: Growth inhibition of human UO31 cells assessed as cell growth at 0.01 uM incubated for 48 hrs by sulforhodamine B assay relative to control; details: UO-31, 48 h, read-out: Activity
[21] = test system: MDA-MB-435; test: Growth inhibition of human MDA-MB-435 cells assessed as cell growth at 100 uM incubated for 48 hrs by sulforhodamine B assay relative to control; details: MDA-MB-435, 48 h, read-out: Activity
[22] = test system: RPMI-8226; test: Growth inhibition of human RPMI8226 cells assessed as cell growth at 10 uM incubated for 48 hrs by sulforhodamine B assay relative to control; details: RPMI-8226, 48 h, read-out: Activity
[23] = test system: HOP-62; test: Growth inhibition of human HOP62 cells assessed as cell growth at 100 uM incubated for 48 hrs by sulforhodamine B assay relative to control; details: HOP-62, 48 h, read-out: Activity
[24] = test system: ACHN; test: Growth inhibition of human ACHN cells assessed as cell growth at 0.01 uM incubated for 48 hrs by sulforhodamine B assay relative to control; details: read-out: Activity
[25] = test system: M14; test: Growth inhibition of human M14 cells assessed as cell growth at 0.1 uM incubated for 48 hrs by sulforhodamine B assay relative to control; details: M14, 48 h, read-out: Activity
[26] = test system: UACC-257; test: Growth inhibition of human UACC257 cells assessed as cell growth at 0.01 uM incubated for 48 hrs by sulforhodamine B assay relative to control; details: UACC-257, 48 h, read-out: Activity
[27] = test system: BT-549; test: Growth inhibition of human BT549 cells assessed as cell growth at 0.1 uM incubated for 48 hrs by sulforhodamine B assay relative to control; details: BT-549, 48 h, read-out: Activity
[28] = test system: HL-60(TB); test: Growth inhibition of human HL-60(TB) cells assessed as cell growth at 0.1 uM incubated for 48 hrs by sulforhodamine B assay relative to control; details: HL-60, 48 h, read-out: Activity
[29] = test system: U-251; test: Growth inhibition of human U251 cells assessed as cell growth at 0.01 uM incubated for 48 hrs by sulforhodamine B assay relative to control; details: U-251, 48 h, read-out: Activity
[30] = test system: MOLT-4; test: Growth inhibition of human MOLT4 cells assessed as cell growth at 0.01 uM incubated for 48 hrs by sulforhodamine B assay relative to control; details: MOLT-4, 48 h, read-out: Activity
[31] = test system: SF-539; test: Growth inhibition of human SF539 cells assessed as cell growth at 1 uM incubated for 48 hrs by sulforhodamine B assay relative to control; details: SF-539, 48 h, read-out: Activity
[32] = test system: SF-539; test: Growth inhibition of human SF539 cells assessed as cell growth at 0.01 uM incubated for 48 hrs by sulforhodamine B assay relative to control; details: SF-539, 48 h, read-out: Activity
[33] = test system: NCI-H322M; test: Growth inhibition of human NCI-H322M cells assessed as cell growth at 0.01 uM incubated for 48 hrs by sulforhodamine B assay relative to control; details: read-out: Activity
[34] = test system: SR; test: Growth inhibition of human SR cells assessed as cell growth at 0.1 uM incubated for 48 hrs by sulforhodamine B assay relative to control; details: read-out: Activity
[35] = test system: NCI-H322M; test: Growth inhibition of human NCI-H322M cells assessed as cell growth at 10 uM incubated for 48 hrs by sulforhodamine B assay relative to control; details: read-out: Activity

SMILES | growth at 0.03 µM [1] [%] | growth at 3 µM [2] [%] | growth at 30 µM [3] [%] | growth at 0.3 µM [4] [%] | growth at 3 µM [5] [%] | growth at 0.003 µM [6] [%] | growth at 0.03 µM [7] [%] | growth at 0.03 µM [8] [%] | growth at 0.03 µM [9] [%] | growth at 0.003 µM [10] [%] | growth at 0.3 µM [11] [%] | growth at 0.003 µM [12] [%] | growth at 10 µM [13] [%] | growth at 0.1 µM [14] [%] | growth at 0.01 µM [15] [%] | growth at 10 µM [16] [%] | growth at 100 µM [17] [%] | growth at 1 µM [18] [%] | growth at 100 µM [19] [%] | growth at 0.01 µM [20] [%] | other results
COc1cc2cc(Oc3ccc(NC(=O)Nc4ccc(Cl)c(C(F)(F)F)c4)cc3)c(C)nc2cc1OC | 100 | 19 | -70 | 113 | 34 | 94 | 86 | 97 | 91 | 94 | 93 | 102 |  |  |  |  |  |  |  |  | 
COc1cc2cc(Oc3ccc(NC(=O)Nc4ccc(Cl)c(Cl)c4)cc3)c(C)nc2cc1OC |  |  |  |  |  |  |  |  |  |  |  |  | -8 | 100 | 95 | 7 | -57 | 106 | -41 | 96 | growth at 100 µM [21]: -45%; growth at 10 µM [22]: -22%; growth at 100 µM [23]: -100%; growth at 0.01 µM [24]: 101%; growth at 0.1 µM [25]: 97%; growth at 0.01 µM [26]: 97%; growth at 0.1 µM [27]: 88%; growth at 0.1 µM [28]: 109%; growth at 0.01 µM [29]: 94%; growth at 0.01 µM [30]: 108%; growth at 1 µM [31]: 103%; growth at 0.01 µM [32]: 101%; growth at 0.01 µM [33]: 100%; growth at 0.1 µM [34]: 108%
Cc1nc2cc(O)c(O)cc2cc1Oc1ccc(NC(=O)Nc2ccc(Cl)c(Cl)c2)cc1 | 103 | 100 | -51 | 106 | 103 | 94 | 86 | 89 | 90 | 98 | 95 | 106 |  |  |  |  |  |  |  |  | growth at 10 µM [35]: 94%
COc1cc2cc(Oc3ccc(NC(=O)Nc4cc(C(F)(F)F)cc(C(F)(F)F)c4)cc3)c(C)nc2cc1OC |  |  |  |  |  |  |  |  |  |  |  |  | -31 | 110 | 97 | -36 | -89 | 88 | -79 | 82 | growth at 100 µM [21]: -63%; growth at 10 µM [22]: -8%; growth at 100 µM [23]: -92%; growth at 0.01 µM [24]: 94%; growth at 0.1 µM [25]: 97%; growth at 0.01 µM [26]: 104%; growth at 10 µM [35]: 14.9%; growth at 0.1 µM [27]: 94%; growth at 0.1 µM [28]: 84%; growth at 0.01 µM [29]: 100%; growth at 0.01 µM [30]: 104%; growth at 1 µM [31]: 73%; growth at 0.01 µM [32]: 92%; growth at 0.01 µM [33]: 94%; growth at 0.1 µM [34]: 97%
